Results reported in US20220226499A1, “Metabolite Delivery for Modulating Metabolic Pathways of Cells” (Arizona Board of Regents on Behalf of Arizona State …, priority 2019, published 2022).

What was measured:
DCs [1] = test: DC activation and cytokine expression by flow cytometry; format: cell-based, C57BL/6j mice; conditions: for CD86 expression in CD11c+ cells: equivalent amount as PaKG MPs, vs no treatment control and PaKG MP condition
Protocol: Briefly, femur and tibia from mice were isolated and kept in wash media composed of DMEM/F-12 (1:1) with L-glutamine, 10% fetal bovine and 1% penicillin-streptomycin. The ends of the bones were cut, and bone marrow was flushed out with 10 mL wash media and mixed to make a homogeneous suspension. Red blood cells were lysed by incubating and resuspending the pellet in 3 mL 1× red blood cell (RBC) lysis buffer for 3 minutes at 4° C. The cell suspension was then washed twice with wash media and re-suspended in DMEM/F-12 with L-glutamine, 10% fetal bovine serum, 1% sodium pyruvate, 1% non-essential amino acids (VWR, Radnor, Pa.), 1% penicillin-streptomycin and 20 ng/ml GM-CSF (DC media). All % values shown here are vol/vol. This cell suspension was then seeded in a tissue culture-treated T-75 flask (day 0). After 48 hours (day 2), floating cells were collected, centrifuged, re-suspended in fresh media and seeded on low attachment plates for 6 additional days. Half of the media was changed every alternate day. At the end of 6 days (day 8), cells were lifted from the low attachment wells by gentle pipetting, re-suspended and seeded on tissue culture-treated polystyrene plates for 2 more days before treating them. […] Purity, yield, and immaturity of DCs (CD11c, MHC-II and CD86) were verified via immunofluorescence staining and flow cytometry. Dendritic cells were isolated from at least 3 separate mice for each experiment.

DCs [2] = test: Seahorse Assay (ECAR and OCR)
Protocol: Lipopolysaccharide (LPS) was used as a positive control, and no treatment was used as a negative control.
Sequential injections were performed with D-glucose (10 mM), oligomycin (1 mM), and 2-deoxyglucose (100 mmol/L). The extracellular acidification rates (ECAR) after the injection of D-glucose was a measure of glycolysis, and the ECAR after the injection of oligomycin represented maximal glycolytic capacity. Non-glycolytic activity was quantified by the measure of ECAR after the injection of 2-deoxyglucose. Samples were analyzed with 10 technical replicates.
For oxidative phosphorylation, 24 hours after cell seeding, media was changed to unbuffered DMEM containing 2 mM glutamine, 1 mM pyruvate, and 10 mM glucose. […] The oxygen consumption rate (OCR) after the injection of oligomycin was a measure of ATP-linked respiration and the OCR after the injection of FCCP represented maximal respiratory capacity. Basal respiration was quantified by the measure of OCR prior to the injection of oligomycin. Samples were analyzed with 10 technical replicates.

| Compound | CD86 expression in CD11c+ cells (DCs [1]) | glycolysis levels compared to PaKG MPs (DCs [2]; DCs) | glycolysis (DCs [2]; vs no treatment control (PaKG MPs also vs LPS)) | frequency of MHC-II+CD86+ in DCs (DCs [1]; vs untreated immature DCs) |
| --- | --- | --- | --- | --- |
| OCCCCCCCCCCO [1,10-decanediol] | did not significantly change |  |  |  |
| O=C(O)CCC(=O)C(=O)O [soluble aKG, alpha-ketoglutarate] | did not significantly change | higher | decreased |  |
| Lipopolysaccharide [LPS] |  |  |  | significantly upregulated |
